The assay relates to spontaneously hypertensive rats. Nature of the assay: Antihypertensive activity: systolic blood pressure measured indirectly on conscious SHR after a single oral dose. It counts as in vivo. The note with it: male; for Hours after Administration (time of lowest systolic blood pressure) / Systolic Blood Pressure, Lowest value after Administration: 0.05 mmole/kg aqueous solution, once force-fed into the stomach; for ΔBlood Pressure (systolic): 0.05 mmole/kg once orally, lowest value minus value before administration. The protocol: The antihypertensive activity of the peptide derivatives as prepared above was determined.
As subject animals there were used 5 SHR which had been trained enough and been confirmed to be hypertensive spontaneously hypertensive rats (male, body weight of 400-440 g),per sample
As an instrument for measuring the blood pressure there was used Programmed Electro-Sphygmomanometer PE-300 (Narco Co., U.S.A.), and the blood pressure was indirectly measured on conscious rats.
An aqueous solution of a sample (0.05 mmole/kg) was once force-fed into the stomach by means of a peroal probe. As a control, deionized water was fed to the same animals as above.

The record followed here is patent US4971993A, “Dipeptide derivatives and antihypertensive drugs containing them” (Ajinomoto Co., Inc., priority 1985, dated 1990).

Peptide text beside a SMILES is read from it. * marks the point of attachment. Mts = Cc1cc(C)c(S(=O)(=O)*)c(C)c1; Tos = Cc1ccc(S(=O)(=O)*)cc1

With “2-benzenesulfonylamino isobutyryl-L-proline sodium salt [Example 21]”, the “Hours after Administration (time of lowest systolic blood pressure)” value (“Hours after Administration” for short) came out at 7 h; the “Systolic Blood Pressure, Lowest value after Administration” value (shortened to “Systolic Blood Pressure, Lowest value”) is 193 mmHg; the “ΔBlood Pressure (systolic)” value was -17 mmHg.

In the case of `C[C@H](NS(=O)(=O)c1ccccc1)C(=O)N1CCC[C@H]1C(=O)O` [Example 1, N-benzenesulfonyl-L-alanyl-L-proline], the “Hours after Administration” value stood at 8 h; the “Systolic Blood Pressure, Lowest value” value came to 185 mmHg; the “ΔBlood Pressure (systolic)” value was -28 mmHg.

`Cc1cc(C)c(S(=O)(=O)N[C@@H](C)C(=O)N2CCC[C@H]2C(=O)O)c(C)c1` [Example 2, N-mesitylenesulfonyl-L-alanyl-L-proline] (Mts-Ala-Pro-OH): the “Hours after Administration” value was determined as 7 h; the “Systolic Blood Pressure, Lowest value” value was 191 mmHg; the “ΔBlood Pressure (systolic)” value was -11 mmHg.

Turning to `Cc1ccc(S(=O)(=O)N[C@@H](C)C(=O)N2CCC[C@H]2C(=O)O)cc1` [Example 3, N-p-toluenesulfonyl-L-alanyl-L-proline] (Tos-Ala-Pro-OH), the “Hours after Administration” value came out at 7 h; the “Systolic Blood Pressure, Lowest value” value turned out to be 194 mmHg; the “ΔBlood Pressure (systolic)” value is -12 mmHg.

For the compound `C[C@H](NS(=O)(=O)c1cccc2ccccc12)C(=O)N1CCC[C@H]1C(=O)O` [Example 4, N-α-naphthalenesulfonyl-L-alanyl-L-proline], the “Hours after Administration” value amounted to 7 h; the “Systolic Blood Pressure, Lowest value” value is 185 mmHg; the “ΔBlood Pressure (systolic)” value is -13 mmHg.

Regarding `C[C@H](NS(=O)(=O)c1ccccc1[N+](=O)[O-])C(=O)N1CCC[C@H]1C(=O)O` [Example 5, N-α-nitrobenzenesulfonyl-L-alanyl-L-proline], the “Hours after Administration” value turned out to be 7 h; the “Systolic Blood Pressure, Lowest value” value came to 193 mmHg; the “ΔBlood Pressure (systolic)” value is on record as -18 mmHg.

Consider `C[C@H](NS(=O)(=O)c1ccccc1N)C(=O)N1CCC[C@H]1C(=O)O` [Example 6, N-o-aminobenzenesulfonyl-L-alanyl-L-proline], for which the “Hours after Administration” value came out at 7 h; the “Systolic Blood Pressure, Lowest value” value turned out to be 197 mmHg; the “ΔBlood Pressure (systolic)” value is -35 mmHg.

Consider `C[C@H](NS(=O)(=O)Cc1ccccc1)C(=O)N1CCC[C@H]1C(=O)O` [Example 7, N-benzylsulfonyl-L-alanyl-L-proline], for which the “Hours after Administration” value came to 7 h; the “Systolic Blood Pressure, Lowest value” value is 194 mmHg; the “ΔBlood Pressure (systolic)” value is listed as -21 mmHg.

In the case of `C[C@H](NS(=O)(=O)c1ccccc1C(=O)O)C(=O)N1CCC[C@H]1C(=O)O` [Example 8, N-o-carboxybenzenesulfonyl-L-alanyl-L-proline], the “Hours after Administration” value turned out to be 7 h; the “Systolic Blood Pressure, Lowest value” value is 194 mmHg; the “ΔBlood Pressure (systolic)” value is listed as -9 mmHg.

Take `O=C(O)[C@@H]1CCCN1C(=O)CNS(=O)(=O)c1ccccc1` [Example 10, N-benzenesulfonylglycyl-L-proline]: the “Hours after Administration” value worked out at 7 h; the “Systolic Blood Pressure, Lowest value” value was determined as 201 mmHg; the “ΔBlood Pressure (systolic)” value is recorded as -9 mmHg.

For the compound `CC(C)[C@H](NS(=O)(=O)c1ccccc1)C(=O)N1CCC[C@H]1C(=O)O` [Example 11, N-benzenesulfonyl-L-valyl-L-proline], the “Hours after Administration” value amounted to 7 h; the “Systolic Blood Pressure, Lowest value” value came out at 203 mmHg; the “ΔBlood Pressure (systolic)” value is given as -11 mmHg.

`CC[C@H](C)[C@H](NS(=O)(=O)c1ccccc1)C(=O)N1CCC[C@H]1C(=O)O` [Example 12, N-benzenesulfonyl-L-isoleucyl-L-proline]: the “Hours after Administration” value is 7 h; the “Systolic Blood Pressure, Lowest value” value amounted to 191 mmHg; the “ΔBlood Pressure (systolic)” value is -21 mmHg.

Turning to `O=C(O)[C@@H]1CCCN1C(=O)[C@@H](NS(=O)(=O)c1ccccc1)c1ccccc1` [Example 13, N-benzenesulfonyl-L-phenylglycyl-L-proline], the “Hours after Administration” value came to 7 h; the “Systolic Blood Pressure, Lowest value” value is 204 mmHg; the “ΔBlood Pressure (systolic)” value was -8 mmHg.

In the case of `O=C(O)[C@@H]1CCCN1C(=O)[C@H](Cc1ccccc1)NS(=O)(=O)c1ccccc1` [Example 14, N-benzenesulfonyl-L-phenylalanyl-L-proline], the “Hours after Administration” value was determined as 7 h; the “Systolic Blood Pressure, Lowest value” value worked out at 201 mmHg; the “ΔBlood Pressure (systolic)” value was -18 mmHg.

With `CSCC[C@H](NS(=O)(=O)c1ccccc1)C(=O)N1CCC[C@H]1C(=O)O` [Example 15, N-benzenesulfonyl-L-methionyl-L-proline], the “Hours after Administration” value stood at 4 h; the “Systolic Blood Pressure, Lowest value” value was 206 mmHg; the “ΔBlood Pressure (systolic)” value is reported as -13 mmHg.

For the compound `O=C(O)[C@@H]1CCCN1C(=O)[C@@H]1CCCN1S(=O)(=O)c1ccccc1` [Example 16, N-benzenesulfonyl-L-prolyl-L-proline], the “Hours after Administration” value stood at 7 h; the “Systolic Blood Pressure, Lowest value” value was determined as 195 mmHg; the “ΔBlood Pressure (systolic)” value was -21 mmHg.

As for `O=C(O)[C@@H]1CCCN1C(=O)[C@H](CO)NS(=O)(=O)c1ccccc1` [Example 17, N-benzenesulfonyl-L-seryl-L-proline], the “Hours after Administration” value is 7 h; the “Systolic Blood Pressure, Lowest value” value was determined as 194 mmHg; the “ΔBlood Pressure (systolic)” value is -22 mmHg.

Turning to `O=C(O)CC[C@H](NS(=O)(=O)c1ccccc1)C(=O)N1CCC[C@H]1C(=O)O` [Example 18, N-benzenesulfonyl-L-glutamyl-L-proline], the “Hours after Administration” value was 7 h; the “Systolic Blood Pressure, Lowest value” value came out at 189 mmHg; the “ΔBlood Pressure (systolic)” value is given as -14 mmHg.

Consider `NCCCC[C@H](NS(=O)(=O)c1ccccc1)C(=O)N1CCC[C@H]1C(=O)O` [Example 19, N^α -benzenesulfonyl-L-lysyl-L-proline], for which the “Hours after Administration” value amounted to 7 h; the “Systolic Blood Pressure, Lowest value” value came out at 191 mmHg; the “ΔBlood Pressure (systolic)” value is on record as -28 mmHg.

On to “N-ethanesulfonyl-L-alanyl-L-proline potassium salt [Example 9]”, for which the “Hours after Administration” value is 7 h; the “Systolic Blood Pressure, Lowest value” value came out at 213 mmHg; the “ΔBlood Pressure (systolic)” value was -5 mmHg.
